In patent publication US7473711B2, “Androgen modulators” (Pfizer Inc., priority 2004, dated 2009):

Target: T1, androgen receptor in MDA-MB453-MMTV clone 54-19 cells (Homo sapiens, UniProt P10275)
T1 sequence (P10275 1-920 Q868H): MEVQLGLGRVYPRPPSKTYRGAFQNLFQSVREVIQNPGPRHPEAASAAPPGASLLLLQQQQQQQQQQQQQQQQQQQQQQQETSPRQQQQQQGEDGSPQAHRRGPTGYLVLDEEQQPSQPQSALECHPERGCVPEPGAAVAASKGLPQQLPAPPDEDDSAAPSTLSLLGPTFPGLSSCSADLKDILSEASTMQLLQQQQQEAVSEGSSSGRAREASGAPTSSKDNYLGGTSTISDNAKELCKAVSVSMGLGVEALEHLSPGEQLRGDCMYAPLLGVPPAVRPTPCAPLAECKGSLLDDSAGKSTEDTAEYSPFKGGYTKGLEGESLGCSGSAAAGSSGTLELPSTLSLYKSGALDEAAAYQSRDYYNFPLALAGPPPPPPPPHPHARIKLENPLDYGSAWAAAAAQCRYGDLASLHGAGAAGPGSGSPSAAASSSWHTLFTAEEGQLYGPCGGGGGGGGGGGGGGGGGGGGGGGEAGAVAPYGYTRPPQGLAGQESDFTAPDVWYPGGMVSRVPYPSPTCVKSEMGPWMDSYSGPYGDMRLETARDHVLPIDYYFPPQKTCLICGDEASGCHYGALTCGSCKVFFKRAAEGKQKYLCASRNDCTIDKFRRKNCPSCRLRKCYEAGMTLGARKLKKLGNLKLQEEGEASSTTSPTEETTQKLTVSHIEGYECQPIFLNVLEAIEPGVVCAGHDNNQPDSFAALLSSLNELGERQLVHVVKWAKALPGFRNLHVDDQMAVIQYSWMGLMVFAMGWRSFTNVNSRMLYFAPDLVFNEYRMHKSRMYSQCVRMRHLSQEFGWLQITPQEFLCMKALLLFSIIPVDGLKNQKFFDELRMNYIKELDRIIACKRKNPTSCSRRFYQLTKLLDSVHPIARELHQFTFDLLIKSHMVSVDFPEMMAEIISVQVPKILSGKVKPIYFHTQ
Experiment: AR antagonist cell assay (MMTV-luciferase reporter, 100 pM DHT)
Format: cell-based
Conditions: read-out: AR Cell IC50; MDA-MB453-MMTV clone 54-19, inhibition of 100 pM DHT induced luciferase, 17 hr; mean of multiple tests
Experimental: The compounds ability to antagonize the effects of androgen on the androgen receptor were determined in a whole cell assay as described immediately below.
Experimental Procedure for AR Antagonist Cell Assay
Cell line: MDA-MB453-MMTV clone 54-19. This cell line is a stable transfected cell line with MDA-MB453 cell background (a human breast tumor cell line expressing androgen receptor). A MMTV minimal promoter containing ARE was first cloned in front of a firefly luciferase reporter gene. Then the cascade was cloned into transfection vector pUV120puro. Electroporation method was used for transfecting MDA-MB-453 cell. Puromycin resistant stable cell line was selected. Cell Culture Media and Reagents:
Culture medium: DMEM (high glucose, Gibco cat #: 11960-044), 10% FBS, and 1% L-glutamine
Plating medium: DMEM (phenol red free), 10% charcoal treated HyClone serum, 1% L-glutamine
Assay medium: DMEM (phenol red free), 1% charcoal treated HyClone serum, 1% L-glutamine, and 1% penicillin/streptomycin
3X luciferase buffer: 2% beta-mercaptoethanol, 0.6% ATP, 0.0135% luciferine in cell lysis buffer
• 1. Cells are maintained in culture medium, splitting cells when they reach 80-90% confluence • 2. To test compounds, 10,000 cells/well are plated to opaque 96 cell culture plate in 100 ul/well plating medium, culture for overnight at 37° C. in cell culture incubator • 3. Carefully remove plating medium, then add 80 ul/well of pre-warmed assay medium, add 10 ul/well testing compound (final concentration at) 1000 nM, 200 nM, 40 nM, 8 nM, 1.6 nM, and 0.32 nM), incubate at 37° C. for 30 minutes • 4. Add 10 ul/well freshly prepared DHT (final concentration at 100 pM) to each well, incubate at 37° C. for 17 hr (overnight) • 5. Add 50 ul/well 3X luciferase buffer, incubate at room temperature for 5 minutes, then count on Luminometer
The fold induction over background by 100 pM DHT in the absence of testing compounds is standardized as 100% and experimental result is expressed as percentage of inhibition by testing compounds.
The results are reported as the mean of multiple tests as described below (the numbers of tests are indicated in the footnote). N.D. denotes that the compound was not tested.

How did the IC50 turn out when `COCC(COc1ccccc1)Oc1ccc(C#N)c(C(F)(F)F)c1` (stereo not drawn) [Example 27, 4-(1-Methoxymethyl-2-phenoxy-ethoxy)-2-trifluoromethyl-benzonitrile] was run?
Its IC50 is 19 nM.

With `N#Cc1ccc(OC(CO)COc2ccccc2)cc1C(F)(F)F` (stereo not drawn) [Example 28, 4-(1-Hydroxymethyl-2-phenoxy-ethoxy)-2-trifluoromethyl-benzonitrile] as the compound, how does the IC50 read?
The IC50 was 69 nM.

With `N#Cc1ccc(OCCCCCOc2ccc(C#N)c(C(F)(F)F)c2)cc1C(F)(F)F` [Example 24] as the compound, how does the IC50 read?
The IC50 was 64 nM.
